Data from patent US20260364080A1, “PYRAZOLO-PYRIMIDINONE COMPOUNDS FOR USE IN METHODS OF INHIBITING WEE1 A KINASE” (Acrivon Therapeutics, Inc., priority 2023, published 2026).

How the values were obtained:
[1] = biological target: T1, recombinant human Wee1A kinase (Homo sapiens, UniProt P30291); experiment: Wee1A kinase binding assay (LanthaScreen Eu time-resolved FRET); conditions: 30 nM tracer 178, 5 nM Wee1A kinase, 2 nM Eu-labeled antibody; 60 minutes at room temperature; read-out: Wee1A kinase Binding IC50
T1 construct: full length Wee1 kinase was expressed by baculovirus in insect cells; purchased Invitrogen PV3817; host or cells: insect cells (baculovirus)
How it was run: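 Full-length, baculovirus-expressed GST-tagged Wee1A (5 nM) was mixed with 2 nM Eu-anti-GST antibody, 30 nM kinase tracer 178 and compound (1% DMSO). Buffer was 50 mM HEPES pH 7.5, 10 mM MgCl2, 1 mM EGTA, 0.01% Brij-35, incubated 60 min at room temperature. TR-FRET 665/615 nm emission ratios from duplicates were curve-fitted.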

[2] = biological target: T2, Myt1 kinase (recombinant PMYT-1) (Homo sapiens, UniProt Q99640); experiment: Myt1 kinase binding assay (LanthaScreen Eu Kinase Binding Assay); conditions: 3 nM tracer 178, 2.5 nM PMYT-1, 1 nM Eu-labeled antibody; read-out: Myt1 kinase Binding IC50
T2 construct: full length PMYT-1 was expressed by baculovirus in insect cells; purchased Invitrogen A30984; host or cells: insect cells (baculovirus)
T2 sequence (Q99640 1-499): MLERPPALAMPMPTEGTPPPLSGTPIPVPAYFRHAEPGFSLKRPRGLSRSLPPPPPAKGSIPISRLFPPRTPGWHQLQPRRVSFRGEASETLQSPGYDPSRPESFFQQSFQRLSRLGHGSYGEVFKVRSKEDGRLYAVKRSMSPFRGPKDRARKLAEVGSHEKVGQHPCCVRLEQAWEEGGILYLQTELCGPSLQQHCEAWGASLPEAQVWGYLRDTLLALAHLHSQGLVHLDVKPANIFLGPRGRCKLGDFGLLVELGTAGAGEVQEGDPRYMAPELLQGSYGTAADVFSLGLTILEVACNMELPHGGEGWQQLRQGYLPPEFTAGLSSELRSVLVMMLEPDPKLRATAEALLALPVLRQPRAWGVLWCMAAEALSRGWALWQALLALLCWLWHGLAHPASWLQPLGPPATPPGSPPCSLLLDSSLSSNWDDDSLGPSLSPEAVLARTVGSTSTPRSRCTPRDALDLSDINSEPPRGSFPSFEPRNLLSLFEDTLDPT
How it was run: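 Compound binding to Myt1 kinase was assessed using the LanthaScreen Eu Kinase Binding Assay. This europium-based binding format was applied to quantify how strongly each compound bound to the Myt1 enzyme, and the binding affinity was reported for each compound as an IC50 value.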

[3] = biological target: T3, Myt1 kinase (CDK1 Thr14 phosphorylation in DAOY medulloblastoma cells) (Homo sapiens, UniProt Q99640); experiment: AlphaLISA assay, Myt1 kinase target engagement (phospho-CDK1 Thr14) in DAOY cells; assay type: cell-based; conditions: 4 h treatment, read-out: CDK1 Thr14 Phosphorylation EC50
T3 construct: pCDK1 Thr14 AlphaLISA read-out
T3 sequence (Q99640 1-499): T2 sequence (Q99640 1-499)
Procedure: Each of an ACHN renal cell carcinoma cell line (ATCC) and a DAOY medulloblastoma cell line, and an A427 lung cancer line were cultured in Minimum Essential Medium Eagle supplemented with 10% fetal calf serum (Sigma), 1% Penicillin-Streptomycin and 10 mM HEPES buffer (HyClone). Cell cultures were kept in a humidified incubator at 37 °C and 5% CO2. Cells were routinely tested for Mycoplasma contamination.
For target engagement assessment of Myt1 kinase inhibition, quantification of Cdk1 phosphorylated on threonine 14 was detected using the AlphaLISA® SureFire® Ultra™ Human Phospho-CDK1 (Thr14) assay (Perkin Elmer). DAOY or ACHN cells were seeded into tissue culture treated 96-well plates (VWR) to a density of 10,000 or 20,000 cells per well respectively. 24 h post seeding cells were treated for 4 h with compounds at concentrations ranging from 7 to 5000 nM. Cells were washed with PBS and lysed in 50 μl AlphaLISA lysis buffer before freezing at −80 C. Ten ul of the lysate was transferred to 384 well plates and incubated with AlphaLISA donor and acceptor beads according to the manufacturer's instructions. Dose response curves and EC50 values were calculated and visualized using GraphPad Prism version 9. Target engagement for Myt1 kinase can also be measured using the same AlphaLISA assay in OVCAR3 cells, an ovarian cancer cell line. NIH:OVCAR-3 (OVCAR3) cells are cultured in RPMI-1640 medium supplemented with 0.01 mg/ml insulin, 20% FBS, 1% Penicillin-Streptomycin and 10 mM HEPES buffer. 14,000 cells per well are seeded into 96 well tissue culture plates in full medium. Twenty-four hours post seeding, cells are treated with compound for 4 hours at concentrations ranging from 0.017 nM to 1000 nM.

[4] = biological target: T4, Wee1A kinase (CDK1 Tyr15 phosphorylation in ACHN renal cell carcinoma cells) (Homo sapiens, UniProt P30291); experiment: High-content imaging of pCdk1 Y15, Wee1A kinase target engagement in ACHN cells; assay type: cell-based; conditions: 4 h treatment, nuclear positivity for pCdk1 Y15 vs DMSO control, read-out: CDK1 Tyr15 Phosphorylation EC50
T4 construct: pCDK1 Tyr15 immunofluorescence read-out
How it was run: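 EC50 values come from the per-well fraction of cells with nuclear pCdk1 Y15 staining, normalised to DMSO control, by automated immunofluorescence imaging. Cells were ACHN renal carcinoma, treated 4 h with compound at 7–5,000 nM or 0.3–200 nM.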

ACHN cells = experiment: Cell Titer Glo viability assay, ACHN cells; assay type: cell-based; conditions: Homo sapiens, 144 h, absolute EC50
How it was run: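 Cells grown in MEM with 10% FCS were seeded at 500 (A427), 400 (ACHN) or 250 (DAOY) per well and treated the next day with compound at 17 to 10 000 nM. Viability relative to untreated control was read at 144 h by CellTiter-Glo 2.0.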

T1 sequence (P30291 whole entry): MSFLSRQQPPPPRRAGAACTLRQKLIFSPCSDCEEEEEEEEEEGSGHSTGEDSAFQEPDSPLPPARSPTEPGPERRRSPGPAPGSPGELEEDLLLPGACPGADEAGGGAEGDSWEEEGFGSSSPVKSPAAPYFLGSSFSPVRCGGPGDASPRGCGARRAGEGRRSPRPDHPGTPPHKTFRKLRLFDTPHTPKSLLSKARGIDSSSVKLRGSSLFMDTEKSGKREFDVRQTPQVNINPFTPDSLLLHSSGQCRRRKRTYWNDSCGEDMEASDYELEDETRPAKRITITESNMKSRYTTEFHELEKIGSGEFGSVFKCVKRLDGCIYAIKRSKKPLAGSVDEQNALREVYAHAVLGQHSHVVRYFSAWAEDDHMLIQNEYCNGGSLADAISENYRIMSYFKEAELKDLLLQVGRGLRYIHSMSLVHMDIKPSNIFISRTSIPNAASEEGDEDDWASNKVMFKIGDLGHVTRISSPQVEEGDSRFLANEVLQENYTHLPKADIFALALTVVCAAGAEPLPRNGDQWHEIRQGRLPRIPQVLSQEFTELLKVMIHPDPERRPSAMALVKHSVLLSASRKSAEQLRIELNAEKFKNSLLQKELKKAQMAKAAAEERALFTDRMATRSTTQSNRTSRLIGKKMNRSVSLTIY
T4 sequence (P30291 whole entry): as above

Row | Structure (SMILES) | IC50 [1] [nM] | IC50 [2] [nM] | EC50 [3] [nM] | EC50 [4] [nM] | EC50 (ACHN cells) [nM]
1 | C=CCn1c(=O)c2cnc(Nc3ccc4ncccc4c3)nc2n1-c1cccc(OC2CCNCC2)n1 [Compound 242, 2-allyl-1-[6-(4-piperidyloxy)-2-pyridyl]-6-(6-quinolylamino)-1,2-dihydro-3H-1,2,5,7-tetraazainden-3-one] | < 10 | < 20 | 500 to 1000 | 100 to 500 | 100 to 500
2 | C=CCn1c(=O)c2cnc(Nc3ccc4cccnc4c3)nc2n1-c1cccc(OC2CCNCC2)n1 [Compound 243, 2-allyl-1-[6-(4-piperidyloxy)-2-pyridyl]-6-(7-quinolylamino)-1,2-dihydro-3H-1,2,5,7-tetraazainden-3-one] | < 10 | < 20 | 500 to 1000 | < 100 | 100 to 500
3 | C=CCn1c(=O)c2cnc(Nc3ccc4cnccc4c3)nc2n1-c1cccc(OC2CCNCC2)n1 [Compound 244, 2-allyl-6-(6-isoquinolylamino)-1-[6-(4-piperidyloxy)-2-pyridyl]-1,2-dihydro-3H-1,2,5,7-tetraazainden-3-one] | < 10 | 20 to 100 | 500 to 1000 | < 100 | 100 to 500
4 | C=CCn1c(=O)c2cnc(Nc3ccc(OC)nc3)nc2n1-c1cccc(OC2CCN(C)CC2)n1 [Compound 250, 2-allyl-6-(6-methoxy-3-pyridylamino)-1-[6-(1-methyl-4-piperidyloxy)-2-pyridyl]-1,2-dihydro-3H-1,2,5,7-tetraazainden-3-one] | < 10 | 20 to 100 | 200 to 500 | < 100 | ≤ 100
5 | C=CCn1c(=O)c2cnc(Nc3ccc(OCC(F)(F)F)cc3)nc2n1-c1ccnc(OC2CCN(C)CC2)n1 [Compound 253, 2-allyl-1-(2-((1-methylpiperidin-4-yl)oxy)pyrimidin-4-yl)-6-((4-(2,2,2-trifluoroethoxy)phenyl)amino)-1,2-dihydro-3H-pyrazolo[3,4-d]pyrimidin-3-one] | < 10 | 20 to 100 | > 1000 | < 100 | ≤ 100
6 | C=CCn1c(=O)c2cnc(Nc3ccc(OCC)cc3)nc2n1-c1cccc(OC2CCNCC2)n1 [Compound 254, 2-allyl-6-((4-ethoxyphenyl)amino)-1-(6-(piperidin-4-yloxy)pyridin-2-yl)-1,2-dihydro-3H-pyrazolo[3,4-d]pyrimidin-3-one] | < 10 | 20 to 100 | 500 to 1000 | < 100 | ≤ 100
7 | C=CCn1c(=O)c2cnc(Nc3ccc(OCC(C)C)cc3)nc2n1-c1cccc(OC2CCN(C)CC2)n1 [Compound 257, 2-allyl-6-((4-isobutoxyphenyl)amino)-1-(6-((1-methylpiperidin-4-yl)oxy)pyridin-2-yl)-1,2-dihydro-3H-pyrazolo[3,4-d]pyrimidin-3-one] | < 10 | < 20 | 500 to 1000 | < 100 | ≤ 100

Other lines, results leading:

Row | IC50 [1] [nM] | IC50 [2] [nM] | EC50 [3] [nM] | EC50 [4] [nM] | EC50 (ACHN cells) [nM] | Structure (SMILES)
8 | < 10 | < 20 | 200 to 500 | < 100 | ≤ 100 | C=CCn1c(=O)c2cnc(Nc3ccc(OCC)cc3)nc2n1-c1cccc(OC2CCN(C)CC2)n1 [Compound 255, 2-allyl-6-((4-ethoxyphenyl)amino)-1-(6-((1-methylpiperidin-4-yl)oxy)pyridin-2-yl)-1,2-dihydro-3H-pyrazolo[3,4-d]pyrimidin-3-one]
9 | < 10 | < 20 | 200 to 500 | < 100 | ≤ 100 | C=CCn1c(=O)c2cnc(Nc3ccc(OCC4CC4)cc3)nc2n1-c1cccc(OC2CCN(C)CC2)n1 [Compound 258, 2-allyl-6-((4-(cyclopropylmethoxy)phenyl)amino)-1-(6-((1-methylpiperidin-4-yl)oxy)pyridin-2-yl)-1,2-dihydro-3H-pyrazolo[3,4-d]pyrimidin-3-one]
10 | < 10 | < 20 | 200 to 500 | < 100 | ≤ 100 | C=CCn1c(=O)c2cnc(Nc3ccc(OCC4CC4)cc3)nc2n1-c1cccc(OC2CCNCC2)n1 [Compound 259, 2-allyl-6-((4-(cyclopropylmethoxy)phenyl)amino)-1-(6-(piperidin-4-yloxy)pyridin-2-yl)-1,2-dihydro-3H-pyrazolo[3,4-d]pyrimidin-3-one]
11 | < 10 | < 20 | 200 to 500 | < 100 | ≤ 100 | C=CCn1c(=O)c2cnc(Nc3ccc4nc(C)sc4c3)nc2n1-c1cccc(OC2CCN(C)CC2)n1 [Compound 260, 2-allyl-6-(2-methyl-1,3-benzothiazol-6-ylamino)-1-[6-(1-methyl-4-piperidyloxy)-2-pyridyl]-1,2-dihydro-3H-1,2,5,7-tetraazainden-3-one]
12 | < 10 | < 20 | < 200 | < 100 | ≤ 100 | C=CCn1c(=O)c2cnc(Nc3ccc(N4CCOCC4)c(C)c3)nc2n1-c1cccc(OC2CCN(C)CC2)n1 [Compound 270, 2-allyl-1-[6-(1-methyl-4-piperidyloxy)-2-pyridyl]-6-(4-morpholino-3-toluidino)-1,2-dihydro-3H-1,2,5,7-tetraazainden-3-one]
13 | < 10 | < 20 | < 200 | < 100 | ≤ 100 | C=CCn1c(=O)c2cnc(Nc3ccc4nn(C)cc4c3)nc2n1-c1cccc(OC2CCN(C)CC2)n1 [Compound 273, 2-allyl-6-((2-methyl-2H-indazol-5-yl)amino)-1-(6-((1-methylpiperidin-4-yl)oxy)pyridin-2-yl)-1,2-dihydro-3H-pyrazolo[3,4-d]pyrimidin-3-one]
14 | < 10 | 20 to 100 | 200 to 500 | < 100 | 100 to 500 | C=CCn1c(=O)c2cnc(Nc3ccc(C#N)c(C)c3)nc2n1-c1cccc(OC2CCNCC2)n1 [Compound 293, 5-{2-allyl-3-oxo-1-[6-(4-piperidyloxy)-2-pyridyl]-1,2-dihydro-3H-1,2,5,7-tetraazainden-6-ylamino}-2-toluonitrile]
15 | < 10 | 20 to 100 | > 1000 | < 100 | ≤ 100 | C=CCn1c(=O)c2cnc(Nc3ccc4c(cnn4C)c3)nc2n1-c1ccnc(NC2CCN(C)CC2)n1 [Compound 313, 2-allyl-6-(1-methyl-1H-indazol-5-ylamino)-1-[2-(1-methyl-4-piperidylamino)-4-pyrimidinyl]-1,2-dihydro-3H-1,2,5,7-tetraazainden-3-one]
